Measurements published in PMC5615061, “Discovery of a Low Toxicity O-GlcNAc Transferase (OGT) Inhibitor by Structure-based Virtual Screening of Natural Products” (Scientific Reports, 2017).
Where two headings read alike, the source gives them in different places.

Target: T1, OGT (O-GlcNAc transferase) (Homo sapiens, UniProt O15294)
T1 construct: full-length OGT, recombinant, purified; plasmid gift of D. J. Vocadlo
T1 sequence (O15294 2-1036 isoform O15294-3): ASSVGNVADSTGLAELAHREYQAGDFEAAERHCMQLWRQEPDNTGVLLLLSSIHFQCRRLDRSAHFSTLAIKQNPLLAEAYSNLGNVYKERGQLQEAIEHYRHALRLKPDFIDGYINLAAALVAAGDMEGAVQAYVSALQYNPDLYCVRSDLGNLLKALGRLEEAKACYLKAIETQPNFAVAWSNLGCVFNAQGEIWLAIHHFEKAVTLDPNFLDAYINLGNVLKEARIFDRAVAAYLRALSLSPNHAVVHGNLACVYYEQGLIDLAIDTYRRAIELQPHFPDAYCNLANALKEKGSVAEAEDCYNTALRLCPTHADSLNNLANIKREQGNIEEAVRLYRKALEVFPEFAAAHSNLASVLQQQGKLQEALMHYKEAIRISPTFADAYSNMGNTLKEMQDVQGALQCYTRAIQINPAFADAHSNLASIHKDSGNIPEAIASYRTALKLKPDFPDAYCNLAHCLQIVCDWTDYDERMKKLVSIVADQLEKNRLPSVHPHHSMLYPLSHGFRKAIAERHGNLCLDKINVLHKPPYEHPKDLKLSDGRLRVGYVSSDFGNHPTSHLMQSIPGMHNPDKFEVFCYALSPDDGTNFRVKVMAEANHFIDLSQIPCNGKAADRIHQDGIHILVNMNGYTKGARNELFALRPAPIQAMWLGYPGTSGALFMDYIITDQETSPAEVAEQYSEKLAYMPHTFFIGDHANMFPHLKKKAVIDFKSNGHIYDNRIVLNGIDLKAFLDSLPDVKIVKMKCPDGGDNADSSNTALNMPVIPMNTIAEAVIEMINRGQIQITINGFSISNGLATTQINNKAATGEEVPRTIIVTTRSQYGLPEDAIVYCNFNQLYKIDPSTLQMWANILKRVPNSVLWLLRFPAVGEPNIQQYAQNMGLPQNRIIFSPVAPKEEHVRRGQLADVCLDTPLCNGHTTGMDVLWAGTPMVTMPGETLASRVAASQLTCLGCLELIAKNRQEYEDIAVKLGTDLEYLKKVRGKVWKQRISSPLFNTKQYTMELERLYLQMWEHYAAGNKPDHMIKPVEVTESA
Experiment: UDP-Glo glycosyltransferase assay, luminescence
Format: biochemical

Compound | IC50 (250 nM OGT, 125 μM CKII peptide, 40 μM UDP-GlcNAc, pH 7.4, time-dependent, not fully UDP-GlcNAc competitive) [µM] | IC50 [µM]
O=C1C[C@@H](c2ccc(O)c(-c3c(O)cc(O)c4c3O[C@H](c3ccc(O)cc3)CC4=O)c2)Oc2cc(O)cc(O)c21 [L01] | 21.8 | –
COc1ccccc1[C@@H](NS(=O)(=O)c1ccc2[nH]c(=O)ccc2c1)C(=O)N(Cc1ccco1)Cc1cccs1 [OSMI-1] | – | 3.5
